Legend:
[1] = in vivo
Description: The in vivo rates of penetration of pro-drugs and their parent drugs through the skin of intact rats were compared. The donor consisted of 20% pro-drugs or their parent drugs in 1 ml of ethanol applied to about 5 cm^2 area on the backs of rats (˜200 g). After 4 hours, the rats were killed, and 5 ml of methanol was added to 1 ml of blood, 1 g of liver, 1 g of kidney, or 1 g of brain (liver, kidney or brain was washed with pH 7.2 buffer for three times) and the mixtures were homogenized. The samples were then centrifuged for 5 min and analyzed using HPLC.
After 4 hours, the rats were killed, and 5 ml of methanol was added to 1 ml of blood, 1 g of liver, 1 g of kidney, or 1 g of brain (liver, kidney or brain was washed with pH 7.2 buffer for three times) and the mixtures were homogenized.

Chinese White rabbits = test: Malassezia-induced psoriasis-like lesions; format: in vivo; conditions: 5% aqueous solution applied twice per day; 10 days after the application
Description: COX-1 and COX-2 play a very important role in animal immune-responses. NSAIAs inhibite COX-1 and COX-2. The pro-drugs of NSAIAs in this invention may be very useful for treating psoriasis, discoid lupus erythematosus, systemic lupus erythematosus (SLE), and other autoimmune diseases. Heavy suspensions of Malassezia [Rosenberg, E. W., et al., Mycopathologia, 72, 147-154 (1980)] were applied to the shaved skin on the backs of the Chinese white rabbits (n=4×6) twice (at 7 am and 7 pm) per day for 2 weeks, lesions similar to psoriasis resulted.

[2] = system: SLAC/GK rats, type 2 diabetes; test: Blood glucose in type 2 diabetic rats, transdermal; format: in vivo; conditions: no fasting; for Blood glucose, diabetic rats, Baseline: baseline of the treatment group; for Blood glucose, diabetic rats, Average: transdermal, equal to 20 mg/kg of NSAIAs once per day for 5 weeks, measured every 3 days, second to fifth week
Description: (§1) The pro-drugs in this invention lower blood glucose levels in rat models (SLAC/GK, type 2 diabetes, n=7). 50% acetone solution of diethylaminoethyl acetylsalicylate.acetylsaficylic acid salt (P-1, in acetone); 4-acetamidophenyl salicylyldimethylaminobutyrate.HCl (P-6), diethylaminoethyl 5-(2,4-difluorophenyl) acetylsalicylate.5-(2,4-difluorophenyl) acetylsalicylic acid salt (P-8), diethylaminoethyl salicylsalicylate.AcOH (P-9), diethylaminoethyl salicylate.AcOH (P-10), diethylaminoethyl 5-acetamido-acetylsalicylate (P-58), diethylaminoethyl acetylsalicylsalicylate. acetylsalicylsalicylic acid salt (P-59), diethylaminoethyl acetylsalicylsalicylate. acetylsalicylsalicylsalicylic acid salt (P-60) (equal to of 20 mg/kg of NSAIAs) were administered transdermally to the backs (about 1.5 cm^2) of rats (fur was shaved) once per day (at 8 am) for 5 weeks. The blood glucose levels were measured once every 3 days at 4 pm (no fasting) from the second week to the fifth week. The blood lipid levels were measured at the end of the fifth week.

normal rats = test: Blood glucose in normal rats, transdermal; format: in vivo; conditions: no fasting; for Blood glucose, normal rats, Baseline: baseline of the treatment group; for Blood glucose, normal rats, Average: transdermal, equal to 20 mg/kg of NSAIAs once per day for 5 weeks, second to fifth week
[3] = system: SLAC/GK rats, type 2 diabetes; test: Blood lipid levels in type 2 diabetic rats, transdermal; format: in vivo; conditions: for Triglycerides, Baseline: baseline of the treatment group; for Triglycerides, Average / Cholesterol (total), Average: end of fifth week, transdermal, equal to 20 mg/kg of NSAIAs once per day
Description: as §1

[4] = system: SLAC/GK rats, type 2 diabetes; test: Blood lipid levels in type 2 diabetic rats, oral with food; format: in vivo
Description: The pH of stomach juice is 1-3. The negative charge on the phosphate head group of membrane is neutralized by the proton and the positive charge on the amino groups of these pro-drugs cannot bond to the phosphate head group of membranes, then the pro-drugs cannot pass through the wall of the stomach and will not hurt or upset the stomach. The pH of the duodenum is about 5-7 and the pro-drugs can pass through the mucosa of duodenum. The pancreas is nearby and large amount of the pro-drugs will enter there before going to the liver, kidneys, and the general circulation where the drug will be metabolized, so only very low dose of these pro-drugs are needed and very few and low side effects will be caused. The 20% acetone solution of diethylaminoethyl acetylsalicylate.acetylsalicylic acid salt (P-1, in acetone); 4-acetamidophenyl salicylyldimethylaminobutyrate.HCl (P-6), diethylaminoethyl 5-(2,4-difluorophenyl) acetylsalicylate.5-(2,4-difluorophenyl) acetylsalicylic acid salt (P-8), diethylaminoethyl salicylsalicylate.AcOH (P-9), diethylaminoethyl salicylate.AcOH (P-10), diethylaminoethyl 5-acetamido-acetylsalicylate (P-58), diethylaminoethyl acetylsalicylsalicylate. acetylsalicylsalicylic acid salt (P-59), diethylaminoethyl acetylsalicylsalicylate. acetylsalicylsalicylsalicylic acid salt (P-60) (equal to of 15 mg/kg of NSAIAs) were mixed with food and were orally administered to the rats (SLAC/GK, type 2 diabetes, n=7) with food every day for 5 weeks. The blood glucose levels were measured once every 3 days at 3 pm (no fasting) from the second week to the fifth week. The blood lipid levels were measured at the end of the fifth week.

[5] = system: SLAC:NOD-IDDM mice, type 1 diabetes; test: Blood glucose in type 1 diabetic mice, transdermal; format: in vivo; conditions: no fasting; for Blood glucose, type I diabetic mice, Baseline: baseline of the treatment group; for Blood glucose, type I diabetic mice, Average: transdermal, equal to 20 mg/kg of NSAIAs once per day for 7 weeks, fourth to seventh week
Description: The pro-drugs in this invention lower blood glucose levels in mouse models (SLAC:NOD-IDDM, type 1 diabetes, n=7). 20% acetone solution of diethylaminoethyl acetylsalicylate.acetylsalicylic acid salt (P-1, in acetone); 4-acetamidophenyl salicylyldimethylaminobutyrate.HCl (P-6), diethylaminoethyl 5-(2,4-difluorophenyl) acetylsalicylate.5-(2,4-difluorophenyl) acetylsalicylic acid salt (P-8), diethylaminoethyl salicylsalicylate.AcOH (P-9), diethylaminoethyl salicylate.AcOH (P-10), diethylaminoethyl 5-acetamido-acetylsalicylate (P-58), diethylaminoethyl acetylsalicylsalicylate. acetylsalicylsalicylic acid salt (P-59), diethylaminoethyl acetylsalicylsalicylate. acetylsalicylsalicylsalicylic acid salt (P-60) (equal to of 20 mg/kg of NSAIAs) were administered transdermally to the backs (about 1 cm^2) of mice (fur was shaved) once per day (at 8 am) for 7 weeks. The blood glucose levels were measured once every 3 days at 3 pm (no fasting) from the fourth week to the seventh week.

[6] = baseline of the treatment group
[7] = end of fifth week, oral with food, equal to 15 mg/kg of NSAIAs every day

CC(=O)Oc1ccccc1C(=O)O [Aspirin]
Drug found in rat tissues or plasma after topical application of the parent drug itself [1]: None of these drugs was found

CC(=O)O.CC(C)Cc1ccc(C(C)C(=O)OCC2CCCNC2)cc1 (stereo not drawn) [P-5, 3-piperidinemethyl 2-(ρ-isobutylphenyl) propionate.AcOH]
Psoriasis-like lesions (Chinese White rabbits): the lesions were resolved

CC(=O)Nc1ccc(OC(=O)c2ccccc2OC(=O)CCCN(C)C)cc1.Cl [P-6, 4-acetamidophenyl salicylyldimethylaminobutyrate.HCl]
Blood glucose, diabetic rats, Baseline [2]: 16.7 ± 4 mmol/L
Blood glucose, diabetic rats, Average [2]: 8.5 ± 2 mmol/L
Blood glucose, normal rats, Baseline (normal rats): 6.8 ± 1 mmol/L
Blood glucose, normal rats, Average (normal rats): 6.5 ± 1 mmol/L
Triglycerides, Baseline [3]: 6.3 ± 0.5 mmol/L
Cholesterol (HDL), Baseline [4, 6]: 1.8 ± 0.1 mmol/L
Triglycerides, Baseline [4, 6]: 5.9 ± 0.5 mmol/L
Blood glucose, type I diabetic mice, Baseline [5]: 27.7 ± 4 mmol/L
Blood glucose, type I diabetic mice, Average [5]: 9.5 ± 2 mmol/L

CC(=O)Oc1ccc(-c2ccc(F)cc2F)cc1C(=O)O.CCN(CC)CCOC(=O)c1cc(-c2ccc(F)cc2F)ccc1OC(C)=O [P-8, diethylaminoethyl 5-(2,4-difluorophenyl) acetylsalicylate.5-(2,4-difluorophenyl) acetylsalicylic acid salt]
Blood glucose, diabetic rats, Baseline [2]: 17.1 ± 3 mmol/L
Blood glucose, diabetic rats, Average [2]: 8.1 ± 1 mmol/L
Blood glucose, normal rats, Baseline (normal rats): 7.1 ± 1 mmol/L
Triglycerides, Average [3]: 2.1 ± 0.2 mmol/L
Cholesterol (total), Baseline [4, 6]: 7.4 ± 0.6 mmol/L
Triglycerides, Baseline [4, 6]: 6.2 ± 0.7 mmol/L
Cholesterol (total), Average [4, 7]: 5.1 ± 0.3 mmol/L
Blood glucose, type I diabetic mice, Baseline [5]: 29.1 ± 5 mmol/L
Blood glucose, type I diabetic mice, Average [5]: 9.1 ± 1 mmol/L

CC(=O)O.CCN(CC)CCOC(=O)c1ccccc1OC(=O)c1ccccc1O [P-9, diethylaminoethyl salicylsalicylate.AcOH]
Blood glucose, diabetic rats, Average [2]: 8.4 ± 1 mmol/L
Blood glucose, normal rats, Baseline (normal rats): 6.5 ± 1 mmol/L
Blood glucose, normal rats, Average (normal rats): 6.7 ± 1 mmol/L
Triglycerides, Baseline [3]: 5.7 ± 0.5 mmol/L
Triglycerides, Average [3]: 2.6 ± 0.2 mmol/L
Cholesterol (total), Average [4, 7]: 5.3 ± 0.4 mmol/L
Blood glucose, type I diabetic mice, Baseline [5]: 26.5 ± 4 mmol/L
Blood glucose, type I diabetic mice, Average [5]: 9.4 ± 1 mmol/L

CC(=O)O.CCN(CC)CCOC(=O)c1ccccc1O [P-10, diethylaminoethyl salicylate.AcOH]
Blood glucose, diabetic rats, Baseline [2]: 15.8 ± 3 mmol/L
Blood glucose, diabetic rats, Average [2]: 8.2 ± 1 mmol/L
Blood glucose, normal rats, Baseline (normal rats): 6.8 ± 1 mmol/L
Triglycerides, Baseline [3]: 6.6 ± 0.6 mmol/L
Triglycerides, Average [3]: 2.9 ± 0.2 mmol/L
Blood glucose, type I diabetic mice, Baseline [5]: 25.8 ± 3 mmol/L
Blood glucose, type I diabetic mice, Average [5]: 8.2 ± 1 mmol/L

CC(=O)O.CCN(CC)CCOC(=O)Cc1cc(C)c(C(=O)c2ccc(Cl)cc2)n1C [P-14, diethylaminoethyl 5-(4-Chlorobenzoyl)-1,4-dimethyl-1H-pyrrole-2-acetate.AcOH]
Psoriasis-like lesions (Chinese White rabbits): the lesions were resolved

CC(=O)O.CCc1cccc2c3c([nH]c12)C(CC)(CC(=O)OCCN(CC)CC)OCC3 (stereo not drawn) [P-15, diethylaminoethyl 1,8-diethyl-1,3,4,9-tetrahydropyrano-[3,4-b]indole-1-acetate.AcOH]
Psoriasis-like lesions (Chinese White rabbits): the lesions were resolved

CC(=O)O.CCN(CC)CCOC(=O)Cc1cccc(C(=O)c2ccc(Br)cc2)c1N [P-17, diethylaminoethyl 2-amino-3-(4-bromo-benzoyl)benzeneacetate.AcOH]
Psoriasis-like lesions (Chinese White rabbits): the lesions were resolved

C=CCOc1ccc(CC(=O)OCCN(CC)CC)cc1Cl.CC(=O)O [P-18, diethylaminoethyl 3-chloro-4-(2-propenyloxy)benzeneacetate.AcOH]
Psoriasis-like lesions (Chinese White rabbits): the lesions were resolved

CC(=O)O.CCN(CC)CCOC(=O)COC(=O)Cc1c(C)n(C(=O)c2ccc(Cl)cc2)c2ccc(OC)cc12 [P-20]
Psoriasis-like lesions (Chinese White rabbits): the lesions were resolved

CC(=O)O.CCN(CC)CCOC(=O)Cc1sc(-c2ccccc2)nc1-c1ccc(Cl)cc1 [P-21, diethylaminoethyl 4-(4-chlorophenyl)-2-phenyl-5-thiazoleacetate.AcOH]
Psoriasis-like lesions (Chinese White rabbits): the lesions were resolved

CCN(CC)CCOC(=O)c1cc(NC(C)=O)ccc1OC(C)=O [P-58, diethylaminoethyl 5-acetamido-acetylsalicylate]
Blood glucose, diabetic rats, Baseline [2]: 17.1 ± 3 mmol/L
Blood glucose, normal rats, Average (normal rats): 7.1 ± 1 mmol/L
Cholesterol (total), Average [3]: 5.4 ± 0.4 mmol/L
Triglycerides, Baseline [4, 6]: 5.9 ± 0.5 mmol/L
Cholesterol (total), Average [4, 7]: 4.9 ± 0.4 mmol/L
Triglycerides, Average [4, 7]: 2.8 ± 0.2 mmol/L
Blood glucose, type I diabetic mice, Baseline [5]: 27.1 ± 3 mmol/L
Blood glucose, type I diabetic mice, Average [5]: 7.9 ± 1 mmol/L

CC(=O)Oc1ccccc1C(=O)Oc1ccccc1C(=O)Oc1ccccc1C(=O)O.CCN(CC)CCOC(=O)c1ccccc1OC(=O)c1ccccc1OC(C)=O [P-60, diethylaminoethyl acetylsalicylsalicylate. acetylsalicylsalicylsalicylic acid salt]
Blood glucose, diabetic rats, Baseline [2]: 15.5 ± 3 mmol/L
Blood glucose, diabetic rats, Average [2]: 8.6 ± 1 mmol/L
Blood glucose, normal rats, Baseline (normal rats): 6.6 ± 1 mmol/L
Blood glucose, normal rats, Average (normal rats): 7.5 ± 1 mmol/L
Triglycerides, Baseline [3]: 5.7 ± 0.6 mmol/L
Cholesterol (total), Average [3]: 5.2 ± 0.3 mmol/L
Triglycerides, Baseline [4, 6]: 6.2 ± 0.5 mmol/L
Cholesterol (total), Average [4, 7]: 5.0 ± 0.3 mmol/L
Blood glucose, type I diabetic mice, Baseline [5]: 25.5 ± 3 mmol/L
Blood glucose, type I diabetic mice, Average [5]: 8.6 ± 1 mmol/L

O=C(O)c1ccccc1O [Salicylic acid]
Brain level of prodrug or metabolites ([1]; rat, 4 h): 30 ± 6 µg/g
Kidney level of prodrug or metabolites ([1]; rat, 4 h): 45 ± 6 µg/g
Liver level of prodrug or metabolites ([1]; rat, 4 h): 30 ± 8 µg/g
Plasma level of prodrug or metabolites ([1]; rat, 4 h): 80 ± 10 µg/mL

O=C(O)Cc1ccccc1Nc1c(Cl)cccc1Cl [diclofenac]
Drug found in rat tissues or plasma after topical application of the parent drug itself [1]: None of these drugs was found
Brain level of prodrug or metabolite ([1]; rat, 4 h): 40 ± 5 µg/g
Kidney level of prodrug or metabolite ([1]; rat, 4 h): 48 ± 6 µg/g
Liver level of prodrug or metabolite ([1]; rat, 4 h): 25 ± 8 µg/g
Plasma level of prodrug or metabolite ([1]; rat, 4 h): 75 ± 8 µg/mL

CC(C(=O)O)c1cccc(Oc2ccccc2)c1 (stereo not drawn) [fenoprofen]
Drug found in rat tissues or plasma after topical application of the parent drug itself [1]: None of these drugs was found
Brain level of prodrug or metabolite ([1]; rat, 4 h): 45 ± 5 µg/g
Kidney level of prodrug or metabolite ([1]; rat, 4 h): 48 ± 6 µg/g
Liver level of prodrug or metabolite ([1]; rat, 4 h): 38 ± 8 µg/g
Plasma level of prodrug or metabolite ([1]; rat, 4 h): 80 ± 8 µg/mL

CC(C)Cc1ccc(C(C)C(=O)O)cc1 (stereo not drawn) [ibuprofen]
Drug found in rat tissues or plasma after topical application of the parent drug itself [1]: None of these drugs was found
Brain level of prodrug or metabolite ([1]; rat, 4 h): 35 ± 5 µg/g
Kidney level of prodrug or metabolite ([1]; rat, 4 h): 45 ± 6 µg/g
Liver level of prodrug or metabolite ([1]; rat, 4 h): 35 ± 8 µg/g
Plasma level of prodrug or metabolite ([1]; rat, 4 h): 70 ± 8 µg/mL

Source: patent US10233198B2, “Pro-drugs of NSAIAs with very high skin and membranes penetration rates and their new medicinal uses” (Techfields Pharma Co., Ltd., priority 2007, dated 2019)
